≈ marks a conversion by molar mass, not a printed value. Read-outs that look alike come from different tables or passages of the source.
How the values were obtained:
Format in all cases: cell-based, Staphylococcus aureus
[1] = tested on: MSSA (KCTC 1927); assay: Minimum inhibitory concentration, two-fold serial dilution, MSSA KCTC 1927; details: Staphylococcus aureus
Protocol: (§1) All the bacterial strains used for the Example were obtained from the Korean Collection of Type Cultures (KCTC; Daejeon, Korea) and the Korean Culture Center of Microorganisms (KCCM; Seoul, Korea). The bacterial strains used for the Example were methicillin-susceptible S. aureus (MSSA; KCTC 1927), two MRSA strains (KCCM 40510 and KCCM 40511). All strains were grown in Mueller-Hinton broth (MHB; Difco, Detroit, USA) or Tryptic soy broth (TSB; Difco) for minimum inhibitory concentration (MIC) assay and in Mueller-Hinton agar (MHA; Difco) for disc diffusion.
(§2) MIC means the lowest concentration of antimicrobials that will inhibit the visible growth of microorganisms after overnight incubation. MICS of the extracts and vancomycin were determined by the two-fold serial dilution method in MHB.

[2] = tested on: MRSA (KCCM 40510); assay: Minimum inhibitory concentration, two-fold serial dilution, MRSA KCCM 40510; details: Staphylococcus aureus
Protocol: as §1, §2

[3] = tested on: MRSA (KCCM 40511); assay: Minimum inhibitory concentration, two-fold serial dilution, MRSA KCCM 40511; details: Staphylococcus aureus
Protocol: as §1, §2

[4] = tested on: MSSA (KCCTC 1927); assay: Checkerboard synergy of phlorofucofuroeckol-A and β-lactams, MSSA KCTC 1927; details: for MIC: Staphylococcus aureus, MSSA; for FIC index (b): β-lactam with phlorofucofuroeckol-A at 12.5 μg/ml; for FIC index (b) / FIC index (c): synergism ≦0.5, indifference >0.5 to ≦4, antagonism >4; for FIC index (c): β-lactam with phlorofucofuroeckol-A at 25 μg/ml
[5] = tested on: MRSA (KCCM 40510); assay: Checkerboard synergy of phlorofucofuroeckol-A and β-lactams, MRSA KCCM 40510; details: for MIC: Staphylococcus aureus; for FIC index (b): β-lactam with phlorofucofuroeckol-A at 12.5 μg/ml; for FIC index (b) / FIC index (c): synergism ≦0.5, indifference >0.5 to ≦4, antagonism >4; for FIC index (c): β-lactam with phlorofucofuroeckol-A at 25 μg/ml
Protocol: (§3) The interaction between phlorofucofuroeckol-A (PFF) and β-lactams including ampicillin, penicillin and oxacillin against MRSA was tested by the checkerboard method. The synergistic effect was evaluated as a fractional inhibitory concentration (FIC) index. The FIC was calculated as the MICS of an antibiotic or phlorofucofuroeckol-A (PFF) in combination divided by the MIC of the antibiotic or PFF alone as follows.
(§4) The FIC was then summed to derive the FIC index, which indicated synergy when index values were as follows:
(§5) synergism ≦≦0.5, indifference >0.5 to ≦≦4, antagonism >4.
(§6) FICA=MICA in combination/MICA, FICB=MICB in combination/MICB

[6] = tested on: MRSA (KCCM 40511); assay: Checkerboard synergy of phlorofucofuroeckol-A and β-lactams, MRSA KCCM 40511; details: for MIC: Staphylococcus aureus; for FIC index (b): β-lactam with phlorofucofuroeckol-A at 12.5 μg/ml; for FIC index (b) / FIC index (c): synergism ≦0.5, indifference >0.5 to ≦4, antagonism >4; for FIC index (c): β-lactam with phlorofucofuroeckol-A at 25 μg/ml
Protocol: as §3, §4, §5, §6

[7] = Table 5, PFF and β-lactams, mecA negative strain, read-out: MIC
[8] = in combination with phlorofucofuroeckol-A at 12.5 μg/ml, read-out: MIC of β-lactam (B)
[9] = in combination with phlorofucofuroeckol-A at 25 μg/ml, read-out: MIC of β-lactam (C)
[10] = without phlorofucofuroeckol-A, read-out: MIC of β-lactam (A)
[11] = Table 6, isolated phlorotannins, read-out: MIC
[12] = Table 5, PFF and β-lactams, mecA positive strain, read-out: MIC

SMILES	MIC [3]	MIC [1, 7]	MIC [4, 8]	MIC [4, 9]	MIC [4, 10]	FIC index (b) [4]	FIC index (c) [4]	MIC [5, 8]	MIC [5, 9]	MIC [5, 10]	FIC index (b) [5]	FIC index (c) [5]	MIC [6, 8]	MIC [6, 9]	MIC [6, 10]	FIC index (b) [6]	FIC index (c) [6]	MIC [1, 11]	MIC [2, 11]	further results
CN[C@H](CC(C)C)C(=O)N[C@H]1C(=O)N[C@@H](CC(N)=O)C(=O)N[C@H]2C(=O)N[C@H]3C(=O)N[C@H](C(=O)N[C@H](C(=O)O)c4cc(O)cc(O)c4-c4cc3ccc4O)[C@H](O)c3ccc(c(Cl)c3)Oc3cc2cc(c3O[C@@H]2O[C@H](CO)[C@@H](O)[C@H](O)[C@H]2O[C@H]2C[C@](C)(N)[C@H](O)[C@H](C)O2)Oc2ccc(cc2Cl)[C@H]1O [Vancomycin, vancomycin]	2 µg/mL (≈ 1.38 µM)																			MIC [1]: 0.5 µg/mL (≈ 0.345 µM); MIC [2]: 2 µg/mL (≈ 1.38 µM)
CC1(C)S[C@@H]2[C@H](NC(=O)[C@H](N)c3ccccc3)C(=O)N2[C@H]1C(=O)O [Ampicillin, ampicillin]		0.063 µg/mL (≈ 0.18 µM)	0.063 µg/mL	0.063 µg/mL	0.063 µg/mL	1.391	1.781	16 µg/mL	8 µg/mL	512 µg/mL	0.422	0.407	2 µg/mL	1 µg/mL	512 µg/mL	0.395	0.393			
Oc1cc(O)cc(Oc2c(O)cc(O)c3c2Oc2c(O)cc(O)cc2O3)c1 [EK, eckol]																		64 µg/mL (≈ 172 µM)	64 µg/mL (≈ 172 µM)	MIC [3, 11]: 64 µg/mL (≈ 172 µM)
Cc1onc(-c2ccccc2)c1C(=O)N[C@@H]1C(=O)N2[C@@H]1SC(C)(C)[C@@H]2C(=O)O [Oxacillin, oxacillin]		0.063 µg/mL (≈ 0.157 µM)	0.063 µg/mL	0.063 µg/mL	0.063 µg/mL	1.391	1.781	8 µg/mL	4 µg/mL	256 µg/mL	0.422	0.407	1 µg/mL	0.5 µg/mL	128 µg/mL	0.399	0.395			MIC [2, 12]: 256 µg/mL (≈ 638 µM); MIC [3, 12]: 128 µg/mL (≈ 319 µM)
Oc1cc(O)cc(Oc2c(O)cc(O)c3c2Oc2c(O)cc(Oc4c(O)cc(Oc5c(O)cc(O)c6c5Oc5c(O)cc(O)cc5O6)cc4O)cc2O3)c1 [DE, dieckol]	64 µg/mL (≈ 86.2 µM)																	32 µg/mL (≈ 43.1 µM)	32 µg/mL (≈ 43.1 µM)	
